Experimental data as given in patent US6399654B1, “Biflavanoids and derivatives thereof as antiviral agents” (priority 1995, dated 2002).
≈ marks a conversion by molar mass, not a printed value. Like-named read-outs stand apart in the source and are kept apart here. Marks after values point to notes of the source that are not given here.

Columns and labels:
HSV-2 = HSV-2 CPE inhibition in HFF cells; conditions: for HSV-2 SI (CC50/EC50): HFF Cells
[1] = tested on: Influenza A (H1N1) Texas/36/91; assay: microbe, parasite or virus in culture; type: cell-based, influenza A virus; conditions: Influenza A virus, MDCK; Influenza A (H1N1) Texas/36/91; read-out: CPE Inhibition EC50
[2] = Cytotoxicity by neutral red dye uptake, BSC-1 cells; conditions: African green monkey
[3] = Cytotoxicity (CC50) in HFF cells in the herpes virus tests; conditions: human
HFF Cells = assay: as above; conditions: HFF Cells; for HSV-2 CPE Inhibition CC50: HSV-2 test
[4] = tested on: Influenza A (A/NWS/33 (H1N1)); assay: Influenza A virus infection in mice; type: in vivo, BALB/c mice
Description: Animals: Female 13-15 g specific pathogen-free BALB/c mice were obtained form Simonsen Laboratories (Gilroy, Calif.). They were quarantined 24 h prior to use, and maintained on Wayne Lab Blox and tap water. After being infected, their drinking water contained 0.006% oxytetracycline (Pfizer, New York, N.Y.) to control possible secondary bacterial infections.
Virus: A/NWS/33 (H1N1) was obtained from K. W. Cochran, Univ. of Michigan (Ann Arbor, Mich.). A virus pool was prepared in MDCK cells; this was titrated in mice, ampuled, and stored at −80° C. until used.
Compounds: Robustaflavone was stored at room temperature until used. Ribavirin, used as a positive control, was obtained from ICN Pharmaceuticals (Costa Mesa, Calif.). Vehicles considered included DMSO (Sigma Chemical Co., St. Louis, Mo.), DMF (Sigma), PEG M. W. 200 (Aldrich Chemical Co. Milwaukee, Wis.), 0.4% CMC (Sigma) and 1-methyl-2-pyrrolidinone (MPD, Aldrich).
Arterial Oxygen Saturation (SaO2) Determinations: SaO2 was determined using the Ohmeda Blox 3740 pulse oximeter (Ohmeda, Louisville, Ohio)). The ear probe attachment was used, the probe placed on the thigh of the animal, with the slow instrument mode selected. Readings were made after a 30 second stabilization time on each animal. Use of this device for measuring effects of influenza virus on arterial oxygen saturation have been described.^72
Lung Virus Determinations: Each mouse lung was homogenized and varying dilutions assayed in triplicate for infectious virus in MDCK cells as described previously.^73
4. Effect of robustaflavone in CMC or in DMSO on influenza virus infection in mice. In the study with CMC, robustaflavone was used in dosages of 200 and 100 mg/kg/day; using DMSO vehicle, the dosages were 75 and 37.5 mg/kg/day, with the compound administered i.p. twice daily for 5 days beginning 4 h pre-virus exposure. The mice were used in each dose to monitor effects on SaO2 and death; from an additional group of similarly infected and treated mice, 3 animals were killed on days 3, 5, 7 and 9 to assay for lung score (0=normal, 4=maximal consolidation), weight, and virus titer. Three to four mice were used as toxicity controls, which were weighed prior to treatment and again 18 h after treatment termination, and deaths noted daily. […] Three sets of virus controls were used: Infected-untreated, infected-treated with CMC only, and infected-treated with DMSO only. Twenty animals were used in each of these control groups to monitor SaO2 and death, with 3 additional mice taken in parallel with treated animals to determine effects on lung consolidation and virus titer. Two sets of normal controls were used; one group of three mice was weighed and held in parallel with the toxicity controls. From the second group three mice were killed on days 3 and 9 for comparison of lung score and weight.
Statistical Evaluation: Increase in survivor number was evaluated using chi square analysis with Yates' correction. Mean survival time increases, virus titer and SaO2 value differences were analyzed by t-test. Lung consolidation scores were evaluated by ranked sum analysis.

HSV-1 = HSV-1 CPE inhibition in HFF cells; conditions: for HSV-1 SI (CC50/EC50): HFF Cells
[5] = tested on: Respiratory Syncytial Virus; assay: microbe, parasite or virus in culture; type: cell-based; conditions: human respiratory syncytial virus, MA104; read-out: CPE Inhibition EC50
in vitro [6] = conditions: African green monkey
[7] = tested on: Influenza A (H1N1) Texas/36/91; assay: microbe, parasite or virus in culture; type: cell-based, influenza A virus; conditions: Influenza A virus, MDCK; Influenza A (H1N1) Texas/36/91; read-out: Neutral Red EC50
HCMV = HCMV CPE inhibition in HFF cells
Measles Virus [8] = assay: microbe, parasite or virus in culture; type: cell-based; conditions: Measles morbillivirus, BSC-1; Measles Virus; read-out: CPI Inhibition EC50
[9] = tested on: Influenza A (H3N2) Beijing/32/92; assay: microbe, parasite or virus in culture; type: cell-based, influenza A virus; conditions: Influenza A virus, MDCK; Influenza A (H3N2) Beijing/32/92; read-out: CPE Inhibition EC50
in vitro [10] = conditions: dog
Influenza B Panama/45/90 = assay: microbe, parasite or virus in culture; type: cell-based; conditions: Influenza B virus, MDCK; Influenza B Panama/45/90; read-out: CPE Inhibition EC50
Measles Virus [11] = assay: Measles virus neutral red dye uptake in BSC-1 cells; type: cell-based; conditions: Measles morbillivirus, BSC-1
[12] = tested on: Influenza A (H3N2) Beijing/32/92; assay: microbe, parasite or virus in culture; type: cell-based, influenza A virus; conditions: Influenza A virus, MDCK; Influenza A (H3N2) Beijing/32/92; read-out: Neutral Red EC50
[13] = robustaflavone in 0.4% CMC, 200 mg/kg/day i.p. bid × 5
[14] = robustaflavone in 0.4% CMC, 1005 mg/kg/day (so in the source) i.p. bid × 5
[15] = robustaflavone in DMSO, 37.5 mg/kg/day i.p. bid × 5
[16] = robustaflavone in DMSO, 75 mg/kg/day i.p. bid × 5

Question: Which “HSV-2 SI (CC50/EC50)” value (HSV-2; listed as Robustaflavone(3)) does the source give for `O=c1cc(-c2ccc(O)c(-c3c(O)cc4oc(-c5ccc(O)cc5)cc(=O)c4c3O)c2)oc2cc(O)cc(O)c12` [Robustaflavone (3), robustaflavone] here?
Answer: >11.8

Question: And the “HSV-2 SI (CC50/EC50)” value (HSV-2; listed as robustaflavone (3))?
Answer: > 11.8

Question: And the EC50 (HSV-2; Human alphaherpesvirus 2, HFF, read-out: HSV-2 CPE Inhibition EC50)?
Answer: 8.5 µg/mL (≈ 15.8 µM)

Question: What about the EC50 [1] of the same compound?
Answer: 1.9 µg/mL (≈ 3.53 µM)

Question: And the IC50 [2]?
Answer: ~100 µg/mL (≈ 186 µM)

Question: What about the CC50 at 3 days [3] of the same compound?
Answer: > 100 µg/mL

Question: What about the CC50 at 14 days [3] of the same compound?
Answer: > 100 µg/mL

Question: And the “HSV-1 CPE Inhibition CC50” value (HFF Cells; HSV-1 test)?
Answer: >100 µg/mL

Question: And the “HSV-2 CPE Inhibition CC50” value (HFF Cells; listed as Robustaflavone(3))?
Answer: >100 µg/mL

Question: What about the “HSV-2 CPE Inhibition CC50” value (HFF Cells; listed as robustaflavone (3)) of the same compound?
Answer: > 100 µg/mL

Question: And the “Infected, Treated MST” value [4, 13]?
Answer: 11.1 days

Question: What about the “Infected, Treated Mean SaO2” value [4, 13] of the same compound?
Answer: 84.6%

Question: And the “Infected, Treated Surv/Total” value [4, 13]?
Answer: 0/9

Question: And the “Infected, Treated MST” value [4, 14]?
Answer: 9.8 days

Question: And the “Infected, Treated Mean SaO2” value [4, 14]?
Answer: 85.1** %

Question: What about the “Infected, Treated Surv/Total” value [4, 14] of the same compound?
Answer: 0/10

Question: What about the “Infected, Treated MST” value [4, 15] of the same compound?
Answer: 8.0 days

Question: What about the “Infected, Treated Mean SaO2” value [4, 15] of the same compound?
Answer: 73.8%

Question: And the “Infected, Treated Surv/Total” value [4, 15]?
Answer: 0/10

Question: What about the “Infected, Treated MST (mean survival time)” value [4, 16] of the same compound?
Answer: 3.2 days

Question: What about the “Infected, Treated Mean SaO2 (mean of days 3-10)” value [4, 16] of the same compound?
Answer: 70.6%

Question: What about the “Infected, Treated Surv/Total” value ([4]; robustaflavone in DMSO, 75 mg/kg/day i.p. bid × 5 beg −4 h pre-virus) of the same compound?
Answer: 0/9

Question: And the “HSV-1 SI (CC50/EC50)” value (HSV-1; listed as Robustaflavone(3))?
Answer: >11.6

Question: What about the “HSV-1 SI (CC50/EC50)” value (HSV-1; listed as robustaflavone (3)) of the same compound?
Answer: > 11.6

Question: What about the EC50 (HSV-1; Human alphaherpesvirus 1, HFF, read-out: HSV-1 CPE Inhibition EC50) of the same compound?
Answer: 8.6 µg/mL (≈ 16 µM)

Question: What about the EC50 [5] of the same compound?
Answer: > 100 µg/mL

Question: What about the IC50 (in vitro [6]; CPE Inhibition IC50 (cytotoxic), Respiratory Syncytial Virus test) of the same compound?
Answer: 56 µg/mL (≈ 104 µM)

Question: And the IC50 (in vitro [6]; CPI Inhibition IC50 (cytotoxic), Parainfluenza Type 3 Virus test)?
Answer: 56 µg/mL (≈ 104 µM)

Question: And the EC50 [7]?
Answer: 2 µg/mL (≈ 3.71 µM)

Question: What about the “HCMV SI (CC50/EC50)” value (HCMV; HFF Cells) of the same compound?
Answer: >1.8

Question: And the EC50 (HCMV; Human betaherpesvirus 5, HFF, read-out: HCMV CPE Inhibition EC50)?
Answer: 54.8 µg/mL (≈ 102 µM)

Question: And the EC50 (Measles Virus [8])?
Answer: < 14 µg/mL

Question: What about the EC50 [9] of the same compound?
Answer: 1.9 µg/mL (≈ 3.53 µM)

Question: And the IC50 (in vitro [10]; CPE Inhibition IC50 (50% cell inhibitory (cytotoxic) concentration), Influenza A (H1N1) test)?
Answer: 18 µg/mL (≈ 33.4 µM)

Question: What about the IC50 (in vitro [10]; CPE Inhibition IC50 (cytotoxic), Influenza A (H3N2) test) of the same compound?
Answer: 32 µg/mL (≈ 59.4 µM)

Question: What about the IC50 (in vitro [10]; CPE Inhibition IC50 (cytotoxic), Influenza B test) of the same compound?
Answer: ~100 µg/mL (≈ 186 µM)

Question: And the EC50 (Influenza B Panama/45/90)?
Answer: 0.23 µg/mL (≈ 0.427 µM)

Question: What about the EC50 (Measles Virus [11]) of the same compound?
Answer: < 30 µg/mL

Question: What about the EC50 [12] of the same compound?
Answer: 1.8 µg/mL (≈ 3.34 µM)
